Laboratory results from patent publication US20250034522A1, “METHOD FOR SEPARATING PITUITARY CELLS AND HYPOTHALAMIC CELLS USING CELL SURFACE MARKER” (FUJITA ACADEMY, priority 2021, published 2025).
Where no end group is shown, it is not given here.

Assays:
Assay type in all cases: cell-based, human
[1] = test system: CD49c-positive cell aggregates reaggregated after FACS purification from hESC sample; experiment: ACTH secretion test with CRH receptor inhibitor under standard and low glucose; details: 3 hours pretreatment, vs 0.1% DMSO, 30 minutes, aggregates cultured 13-15 days
Experimental: As a test method, a cell aggregate that was reaggregated after FACS purification from a hESC sample and cultured for 13-15 days was used. Before secretion measurement, cells were pretreated for 3 hours with maintenance medium (gfCDM+20% KSR+[…]) containing antalarmin […] or the same amount of solvent (0.1% DMSO) as a control. Each pretreated cell aggregate was transferred to a 1.5 ml microtube, incubated in 250 μl of standard glucose medium (glucose-free DMEM+5.56 mM D-glucose+4.44 mM D-mannitol) at 37° C. for 30 minutes, and the medium was collected. Subsequently, the aggregate was incubated in 250 μl of low glucose medium (glucose-free DMEM+0.56 mM D-glucose+9.44 mM D-mannitol) at 37° C. for 30 minutes, and then the medium was collected. Antalarmin or DMSO was continuously added to the standard glucose medium and low glucose medium described above. The results of measuring the ACTH concentration in the collected medium using the ECLIA method used in clinical tests are shown. It was confirmed that ACTH secretion increased under low glucose conditions (10 mg/dL) compared to standard glucose conditions (100 mg/dL). […]
(§1) Cell aggregates that were reaggregated after MACS or FACS purification and cultured for 8 days or more were used. […] ACTH concentration in the collected medium etc., was measured by the ECLIA method used in clinical testing. […]

[2] = test system: CD49c-positive cell aggregates reaggregated after FACS purification from hESC sample; experiment: ACTH secretion test with secretion suppressor cortisol; details: CD49c-positive cells (FACS, hESC sample), cultured 13 days, 3 hours pretreatment, Hydrocortisone 20 µg/ml vs 0.1% DMSO, standard glucose medium 30 minutes, ECLIA
Experimental: As a test method, a cell aggregate that was reaggregated after FACS purification from a hESC sample and cultured for 12 days was used. Each cell aggregate was transferred to a 1.5 ml microtube, incubated in 250 μl of standard glucose medium (glucose-free DMEM+5.56 mM D-glucose+4.44 mM D-mannitol) at 37° C. for 30 minutes, and then the medium was collected. Subsequently, the aggregate was incubated in 250 μl of standard glucose medium containing 1 μg/ml CRH (Peptide Institute, #4136-s) at 37° C. for 30 minutes, and then the medium was collected. The ACTH concentration in the collected medium was measured by the ECLIA method used in clinical testing. […] As a test method, a cell aggregate that was reaggregated after FACS purification from a hESC sample and cultured for 13 days was used. Before secretion measurement, cells were pretreated for 3 hours with maintenance medium (gfCDM+20% KSR+2 μM SAG) containing cortisol (Hydrocortisone, […]) or the same amount of solvent (0.1% DMSO) as a control. […] The ACTH concentration in the collected medium was measured by the ECLIA method used in clinical testing. […] ACTH concentration in the collected medium etc., was measured by the ECLIA method used in clinical testing. […]

[3] = test system: cell aggregates reaggregated after MACS purification from hESC sample (CD49c-positive / CD49c-negative cells); experiment: ACTH secretion test (CRH stimulation) on reaggregates after MACS purification; details: 8 days after reaggregation, 5 aggregates, 1 μg/ml CRH in HBSS, 37° C., 10 minutes, ECLIA
Experimental: The test method used cell aggregates that were cultured for 8 days after MACS purification from a sample differentiated from hESC (also referred to as “hESC sample”) and reaggregation. 5 cell aggregates were transferred to a 1.5 ml microtube and incubated in 250 μl of HBSS(+) (Wako, #084-08965) at 37° C. for 10 minutes, and then HBSS was collected. Subsequently, HBSS was collected after incubation at 37° C. for 10 minutes in 250 μl of HBSS containing 1 μg/ml CRH (Peptide Institute, #4136-s). The ACTH concentration in the collected HBSS was measured by the ECLIA method used in clinical testing.
(§2) Cell aggregates that were reaggregated after MACS or FACS purification and cultured for 8 days or more were used. One or five cell aggregates were incubated at a predetermined temperature and for a predetermined time using a predetermined medium, etc., and then the medium and the like were collected. ACTH concentration in the collected medium etc., was measured by the ECLIA method used in clinical testing. In addition, when confirming the influence of secretion suppressing factors and CRH receptor inhibitors, pretreatment was performed for a predetermined period of time with a maintenance medium containing secretion suppressing factors and CRH receptor inhibitors before secretion measurement.

[4] = test system: cell aggregates reaggregated after FACS purification from hiPSC sample (CD49c-positive / CD49c-negative cells); experiment: ACTH secretion test (CRH stimulation) on hiPSC sample reaggregates; details: cultured 21 days, 1 μg/ml CRH in standard glucose medium, 37° C., 30 minutes, ECLIA
Experimental: As a test method, a cell aggregate that was reaggregated after FACS purification from a hiPSC sample and cultured for 21 days was used. Each cell aggregate was transferred to a 1.5 ml microtube, incubated in 250 μl of standard glucose medium (glucose-free DMEM+5.56 mM D-glucose+4.44 mM D-mannitol) at 37° C. for 30 minutes, and then the medium was collected. Subsequently, the aggregate was incubated in 250 μl of standard glucose medium containing 1 μg/ml CRH (Peptide Institute, #4136-s) at 37° C. for 30 minutes, and then the medium was collected. The ACTH concentration in the collected medium was measured by the ECLIA method used in clinical testing.
as §2

[5] = test system: CD49c-positive cell aggregates reaggregated after FACS purification from hESC sample; experiment: ACTH secretion test (CRH stimulation) on reaggregates after FACS purification; details: CD49c-positive cells (FACS, hESC sample), cultured 12 days, 1 μg/ml CRH in standard glucose medium, 37° C., 30 minutes, ECLIA
Experimental: As a test method, a cell aggregate that was reaggregated after FACS purification from a hESC sample and cultured for 12 days was used. Each cell aggregate was transferred to a 1.5 ml microtube, incubated in 250 μl of standard glucose medium (glucose-free DMEM+5.56 mM D-glucose+4.44 mM D-mannitol) at 37° C. for 30 minutes, and then the medium was collected. Subsequently, the aggregate was incubated in 250 μl of standard glucose medium containing 1 μg/ml CRH (Peptide Institute, #4136-s) at 37° C. for 30 minutes, and then the medium was collected. The ACTH concentration in the collected medium was measured by the ECLIA method used in clinical testing. […] As a test method, a cell aggregate that was reaggregated after FACS purification from a hESC sample and cultured for 13 days was used. Before secretion measurement, cells were pretreated for 3 hours with maintenance medium (gfCDM+20% KSR+2 μM SAG) containing cortisol (Hydrocortisone, […]) or the same amount of solvent (0.1% DMSO) as a control. […] The ACTH concentration in the collected medium was measured by the ECLIA method used in clinical testing.
as §1

## CCCCN(CC)c1nc(C)nc2c1c(C)c(C)n2-c1c(C)cc(C)cc1C [Antalarmin]
[1]; low glucose conditions (10 mg/dL)
  ACTH secretion with Antalarmin treatment: reduced ACTH secretion
[1]; standard glucose conditions (100 mg/dL)
  ACTH secretion with Antalarmin treatment: reduced ACTH secretion

## C[C@]12CCC(=O)C=C1CC[C@@H]1[C@@H]2[C@@H](O)C[C@@]2(C)[C@H]1CC[C@]2(O)C(=O)CO [cortisol, Hydrocortisone]
[2]
  ACTH secreted per cell aggregate before and after cortisol treatment: ACTH secretion was reduced

## CRH: CRH (Peptide Institute, #4136-s), a physiological secretion stimulating factor (SEEPPISLDLTFHLLREVLEMARAEQLAQQAHSNRKLMEII; ends and bridges not checked; UniProt P06850 154-194, looked up)
[3]; CD49c-negative cells (MACS, hESC sample)
  ACTH secretion before and after CRH stimulation: did not respond to CRH
[3]; CD49c-positive cells (MACS, hESC sample)
  ACTH secretion before and after CRH stimulation: increased ACTH secretion
[4]; CD49c-negative cells (FACS, hiPSC sample)
  ACTH secretion per cell aggregate before and after CRH stimulation: did not respond to CRH
[4]; CD49c-positive cells (FACS, hiPSC sample)
  ACTH secretion per cell aggregate before and after CRH stimulation: increased ACTH secretion
[5]
  ACTH secretion per cell aggregate before and after CRH stimulation: ACTH secretion increases
